Test results as given in patent US20110112100A1, “Hepatitis C Virus Inhibitors” (priority 2009, published 2011).

Experiments:
1a-H77 replicon cells = test: HCV 1a replicon inhibitory activity (Renilla luciferase); type: cell-based, hepatitis C virus; details: Hepatitis C virus; geometric mean, 95% confidence intervals in parentheses; 48 hours; medium with 10% FCS; read-out: IC50 value (95% Confidence Intervals) pM Replicon 1A assay
Protocol: (§1) Test compounds were solubilised to 4 mM in 100% DMSO. Dilutions were made to the desired starting concentration in 100% DMSO and then 1 in 3 dilutions made, again in 100% DMSO. 0.5 μl of each sample was added to 384-well assay plates. White Lumitrac (Greiner) plates were used for the 1a and 1b replicon assays and black, clear bottomed (Greiner) plates were used for the WST-1 cytotoxity assay.
1a-H77 replicon cells (licensed from Apath LLC) were resuspended to a concentration of 1.4×10^5 cells/ml by addition of pre-warmed assay medium (Dulbecco's Modified Eagle's Medium (DMEM)+10% fetal calf serum (FCS)). 50 μl of this suspension was added to each well of a 384-well assay plate (Lumitrac, Greiner), already containing 0.5 μl of test compound.
All plates were covered with gas permeable seals and incubated at 37° C., 5% CO2 for 48 hours. After 48 hours, the assay plate was removed from the incubator and left to cool to room temperature for 15 to 30 mins. Medium was removed from the wells and 5 μl 1× lysis buffer (from Promega's Renilla Luciferase assay kit, E2820) was added to each well. The plate was incubated at room temperature for 15 mins then 15 μl 1×Assay Substrate (from the same kit) was added to each well. Luminescence was read immediately using an EnVision (Perkin Elmer) plate reader. The half maximal effective concentration (1050) values were calculated by constructing log concentration-response curves for each compound.

1b (con1) replicon cells = test: HCV 1b replicon inhibitory activity (luciferase, Britelite Plus); type: cell-based, hepatitis C virus; details: Hepatitis C virus; geometric mean, 95% confidence intervals in parentheses; 48 hours; medium with 10% FCS; read-out: IC50 value (95% Confidence Intervals) pM Replicon 1B assay
Protocol: as §1
1b (con1) replicon cells (pFK1389lucubineo/NS3-3′/ET/9B, licensed from Ralf Bartenschlager, University of Heidelberg) were resuspended to a concentration of 1.4×10^5 cells/ml by addition of pre-warmed medium (DMEM+10% FCS). 50 μl of this suspension was added to each well of a 384-well assay plate (Lumitrac, Greiner) already containing 0.5 μl of test compound.
All plates were covered with gas permeable seals and incubated at 37° C., 5% CO2 for 48 hours. After 48 hours, the plate was removed from the incubator and left to cool to room temperature for 15-30 mins. 35 ul of reconstituted Lyophilised Britelite Plus Substrate (PerkinElmer, 6016767) to medium was added to each well. Luminescence was read after 1 min but before 15 mins on an EnVision (Perkin Elmer) plate reader. The half maximal effective concentration (1050) values were calculated by constructing log concentration-response curves for each compound.

Row | SMILES | IC50 (1a-H77 replicon cells) [pM] | IC50 (1b (con1) replicon cells) [pM]
1 | COC(=O)N[C@H](C(=O)N1CCC[C@H]1c1ncc(-c2ccc(-c3cnc4cc(-c5cnc([C@@H]6CCCN6C(=O)[C@@H](NC(=O)OC)C(C)C)[nH]5)ccc4n3)cc2)[nH]1)C(C)C [Example 4, Methyl {(2S)-1-[(2S)-2-{5-[4-(6-{2-[(2S)-1-{(2S)-2-[(methoxycarbonyl)amino]-3-methylbutanoyl}pyrrolidin-2-yl]-1H-imidazol-5-yl}quinoxalin-2-yl)phenyl]-1H-imidazol-2-yl}pyrrolidin-1-yl]-3-methyl-1-oxobutan-2-yl}carbamate] | 17.4 | 7.7
2 | COC(=O)N[C@H](C(=O)N1CCC[C@H]1c1ncc(-c2ccc(-c3ccc4nc(-c5cnc([C@@H]6CCCN6C(=O)[C@@H](NC(=O)OC)C(C)C)[nH]5)cnc4c3)cc2)[nH]1)C(C)C [Example 5, Methyl {(2S)-1-[(2S)-2-{5-[4-(2-{2-[(2S)-1-{(2S)-2-[(methoxycarbonyl)amino]-3-methyl-butanoyl}pyrrolidin-2-yl]-1H-imidazol-5-yl}quinoxalin-6-yl)phenyl]-1H-imidazol-2-yl}pyrrolidin-1-yl]-3-methyl-1-oxobutan-2-yl}carbamate] | 387 | 8.12
3 | COC(=O)N[C@H](C(=O)N1CCC[C@H]1c1nc(-c2ccc(-c3ccc4cc(-c5cnc([C@@H]6CCCN6C(=O)[C@@H](NC(=O)OC)C(C)C)[nH]5)ccc4c3)nc2)c[nH]1)C(C)C [Example 6, Methyl {(2S)-1-[(2S)-2-{5-[6-(5-{2-[(2S)-1-{(2S)-2-[(methoxycarbonyl)amino]-3-methyl-butanoyl}pyrrolidin-2-yl]-1H-imidazol-4-yl}pyridin-2-yl)naphthalen-2-yl]-1H-imidazol-2-yl}pyrrolidin-1-yl]-3-methyl-1-oxobutan-2-yl}carbamate] | 56.4 | 3.51
4 | COC(=O)N[C@H](C(=O)N1CCC[C@H]1c1ncc(-c2cnc(-c3ccc4cc(-c5cnc([C@@H]6CCCN6C(=O)[C@@H](NC(=O)OC)C(C)C)[nH]5)ccc4c3)nc2)[nH]1)C(C)C [Example 7, Methyl {(2S)-1-[(2S)-2-{5-[6-(5-{2-[(2S)-1-{(2S)-2-[(methoxycarbonyl)amino]-3-methyl-butanoyl}pyrrolidin-2-yl]-1H-imidazol-5-yl}pyrimidin-2-yl)naphthalen-2-yl]1H-imidazol-2-yl}pyrrolidin-1-yl]-3-methyl-1-oxobutan-2-yl}carbamate] | 68.4 | 21.4
5 | COC(=O)N[C@H](C(=O)N1CCC[C@H]1c1ncc(-c2ccc(-c3ccc4cc(-c5cnc([C@@H]6CCCN6C(=O)[C@@H](NC(=O)OC)C(C)C)[nH]5)ncc4c3)cc2)[nH]1)C(C)C [Example 8, Methyl {(2S)-1-[(2S)-2-{5-[4-(3-{2-[(2S)-1-{(2S)-2-[(methoxycarbonyl)amino]-3-methyl-butanoyl}pyrrolidin-2-yl]-1H-imidazol-5-yl}isoquinolin-7-yl)phenyl]-1H-imidazol-2-yl}pyrrolidin-1-yl]-3-methyl-1-oxobutan-2-yl}carbamate] | 91.2 | 20.5
6 | COC(=O)N[C@H](C(=O)N1CCC[C@H]1c1ncc(-c2ccc(-c3cnc4cc(-c5cnc([C@@H]6CCCN6C(=O)[C@@H](NC(=O)OC)C(C)C)[nH]5)ccc4n3)nc2)[nH]1)C(C)C [Example 9, Methyl {(2S)-1-[(2S)-2-{5-[6-(6-{2-[(2S)-1-{(2S)-2-[(methoxycarbonyl)amino]-3-methyl-butanoyl}pyrrolidin-2-yl]-1H-imidazol-5-yl}quinoxalin-2-yl)pyridin-3-yl]-1H-imidazol-2-yl}pyrrolidin-1-yl]-3-methyl-1-oxobutan-2-yl}carbamate] | 42.9 | 12.7
7 | COC(=O)N[C@H](C(=O)N1CCC[C@H]1c1nc(-c2ccc(-c3cc4ccc(-c5cnc([C@@H]6CCCN6C(=O)[C@@H](NC(=O)OC)C(C)C)[nH]5)cc4cn3)nc2)c[nH]1)C(C)C [Example 11, Methyl {(2S)-1-[(2S)-2-{4-[6-(7-{2-[(2S)-1-{(2S)-2-[(methoxycarbonyl)amino]-3-methyl-butanoyl}pyrrolidin-2-yl]-1H-imidazol-5-yl}isoquinolin-3-yl)pyridin-3-yl]-1H-imidazol-2-yl}pyrrolidin-1-yl]-3-methyl-1-oxobutan-2-yl}carbamate] | 42.1 | 20.8
8 | COC(=O)N[C@H](C(=O)N1CCC[C@H]1c1nc(-c2ccc3cc(-c4ccc(-c5cnc([C@@H]6CCCN6C(=O)[C@@H](NC(=O)OC)C(C)C)[nH]5)cc4)ccc3n2)c[nH]1)C(C)C [Example 13, Methyl {(2S)-1-[(2S)-2-{5-[4-(2-{2-[(2S)-1-{(2S)-2-[(methoxycarbonyl)amino]-3-methyl-butanoyl}pyrrolidin-2-yl]-1H-imidazol-4-yl}quinolin-6-yl)phenyl]-1H-imidazol-2-yl}pyrrolidin-1-yl]-3-methyl-1-oxobutan-2-yl}carbamate] | 78.1 | 12
9 | COC(=O)N[C@H](C(=O)N1CCC[C@H]1c1ncc(-c2ccc(-c3cnc4cc(-c5cnc([C@@H]6CCCN6C(=O)[C@@H](NC(=O)OC)C(C)C)[nH]5)cnc4n3)cc2)[nH]1)C(C)C [Example 14, Methyl {(2S)-1-[(2S)-2-{5-[3-(4-{2-[(2S)-1-{(2S)-2-[(methoxycarbonyl)amino]-3-methyl-butanoyl}pyrrolidin-2-yl]-1H-imidazol-5-yl}phenyl)pyrido[2,3-b]pyrazin-7-yl]-1H-imidazol-2-yl}pyrrolidin-1-yl]-3-methyl-1-oxobutan-2-yl}carbamate] | 882 | 189
10 | COC(=O)N[C@H](C(=O)N1CCC[C@H]1c1ncc(-c2ccc(-c3nc(O)c4cc(-c5cnc([C@@H]6CCCN6C(=O)[C@@H](NC(=O)OC)C(C)C)[nH]5)ccc4n3)cc2)[nH]1)C(C)C [Example 15, Methyl {(2S)-1-[(2S)-2-{5-[4-(4-hydroxy-6-{2-[(2S)-1-{(2S)-2-[(methoxycarbonyl)amino]-3-methylbutanoyl}pyrrolidin-2-yl]-1H-imidazol-5-yl}quinazolin-2-yl)phenyl]-1H-imidazol-2-yl}pyrrolidin-1-yl]-3-methyl-1-oxobutan-2-yl}carbamate] | 194 | 102
11 | CCOc1nc(-c2ccc(-c3cnc([C@@H]4CCCN4C(=O)[C@@H](NC(=O)OC)C(C)C)[nH]3)cc2)nc2ccc(-c3cnc([C@@H]4CCCN4C(=O)[C@@H](NC(=O)OC)C(C)C)[nH]3)cc12 [Example 16, Methyl {(2S)-1-[(2S)-2-{5-[4-(4-ethoxy-6-{2-[(2S)-1-{(2S)-2-[(methoxycarbonyl)amino]-3-methylbutanoyl}pyrrolidin-2-yl]-1H-imidazol-5-yl}quinazolin-2-yl)phenyl]-1H-imidazol-2-yl}pyrrolidin-1-yl]-3-methyl-1-oxobutan-2-yl}carbamate] | 35.3 | 5.28
12 | COC(=O)N[C@H](C(=O)N1CCC[C@H]1c1nc(-c2ccc(-c3nc4ccc(-c5c[nH]c([C@@H]6CCCN6C(=O)[C@@H](NC(=O)OC)C(C)C)n5)cc4nc3OC)cc2)c[nH]1)C(C)C [Example 17, Methyl {(2S)-1-[(2S)-2-{4-[4-(3-methoxy-6-{2-[(2S)-1-{(2S)-2-[(methoxycarbonyl)amino]-3-methylbutanoyl}pyrrolidin-2-yl]-1H-imidazol-4-yl}quinoxalin-2-yl)phenyl]-1H-imidazol-2-yl}pyrrolidin-1-yl]-3-methyl-1-oxobutan-2-yl}carbamate] | 560 | 22.3
13 | COC(=O)N[C@H](C(=O)N1CCC[C@H]1c1nc(-c2ccc(-c3nc4ccc(-c5c[nH]c([C@@H]6CCCN6C(=O)[C@@H](NC(=O)OC)C(C)C)n5)cc4nc3O)cc2)c[nH]1)C(C)C [Example 18, Methyl {(2S)-1-[(2S)-2-{4-[4-(3-hydroxy-6-{2-[(2S)-1-{(2S)-2-[(methoxycarbonyl)amino]-3-methylbutanoyl}pyrrolidin-2-yl]-1H-imidazol-4-yl}quinoxalin-2-yl)phenyl]-1H-imidazol-2-yl}pyrrolidin-1-yl]-3-methyl-1-oxobutan-2-yl}carbamate] | 536 | 35.8
14 | COC(=O)N[C@H](C(=O)N1CCC[C@H]1c1nc(-c2ccc(-c3cnc4cc(-c5cnc([C@@H]6CCCN6C(=O)[C@@H](NC(=O)OC)C(C)C)[nH]5)cnc4c3)cc2)c[nH]1)C(C)C [Example 19, Methyl {(2S)-1-[(2S)-2-{5-[7-(4-{2-[(2S)-1-{(2S)-2-[(methoxycarbonyl)amino]-3-methylbutanoyl}pyrrolidin-2-yl]-1H-imidazol-4-yl}phenyl)-1,5-naphthyridin-3-yl]-1H-imidazol-2-yl}pyrrolidin-1-yl]-3-methyl-1-oxobutan-2-yl}carbamate] | 468 | 38.3
